Reference: paper PMC12794078, “Real-Time Binding Kinetics of Small Molecules to CA IX in Live Suspension Cells Using SPR Microscopy” (ACS Medicinal Chemistry Letters, 2025)
Where two headings read alike, the source gives them in different places. Values belong to the compound of their own block, whether it stands above or below them.

Key:
[1] = target: CA IX on live Ramos B cells (Homo sapiens, UniProt Q16790); assay: SPRM kinetic titration of small molecules on live Ramos B suspension cells (1:1 kinetic model, 600 ROIs)
Description: All cells were maintained in an incubator at 37 °C with 5% CO2 before seeding. For every experiment, cell viability was determined with Trypan blue using a TC20 cell counter (BioRad). PLL precoated SPRM sensor chips were prepared according to manufacturer’s protocol (Gibco, cat. # A3890401). 5K Ramos B cells at 99% viability were gently seeded onto PLL precoated SPRM sensor chips containing 600 μL of Mccoy medium 5A supplemented with 10% FBS and then incubated at 37 °C with 5% CO2. After 72 h of incubation, cells were washed with live cell imaging buffer (A59688DJ) twice and immediately followed by SPRM analysis. […] All experiments were performed with a commercially available Ramos B cell line.
SPRM is highly sensitive to ligand binding events on the cell membrane, which induces dielectric changes that are recorded as sensorgrams. Moreover, its high-resolution diffraction limited optics produces sensorgrams of subcellular response regions, enabling detailed evaluation of binding heterogeneity.
High resolution SPRM measurements were generated by uniformly segmenting the sensing area (600 μm × 450 μm area) into a virtual grid of 600 regions of interest (ROI). For every ROI, a 1:1 kinetic binding interaction model was applied. Bare area ROIs were subtracted as references from the cell area ROIs. The SPRM kinetic analysis results of all ROIs were aggregated for statistical analysis. ImageSPR software (Biosensing Instrument Inc., Tempe AZ) was used to generate the sensorgrams, fitting, and statistical analysis of binding interactions. ROIs that detected a response which fitted well to the kinetic interaction model were collectively plotted onto an isoaffinity scatter plot for statistical analysis of the binding heterogeneity (Figure ). Histograms extracted from the isoaffinity scatter plot were fit with Gaussian distributions to obtain mean values and standard deviations for the association rate (k a), dissociation rate (k d), and equilibrium dissociation constant (KD). Subsequently, those ROIs that observe binding responses were highlighted in red and overlaid onto the SPRM image to more clearly evaluate the extent of cell-specific and nonspecific binding.

CA II = conditions: ex vitro purified CA II, published values; reference number not given; read-out: Reported values CA II; cited from earlier work
[2] = association rate, membrane-bound CA IX, live Ramos B cells
[3] = dissociation rate, membrane-bound CA IX, live Ramos B cells

- k a, SPRM results for CA IX [1, 2]: 1.10 × 10^03 M^–1 s^–1
- kd, SPRM results for CA IX [1, 3]: 1.16 × 10^–03 s^–1
Structure (SMILES): NS(=O)(=O)c1cc(C(=O)O)c(NCc2ccco2)cc1Cl [Furosemide]

- Kd ([1]; Batch 1, live Ramos B cells, experiment/batch 1): 586 nM
- Kd ([1]; Batch 2, live Ramos B cells, experiment/batch 2): 542 nM
- Kd ([1]; Batch 3, live Ramos B cells, experiment/batch 3): 534 nM
- Kd ([1]; SPRM results for CA IX, membrane-bound CA IX, live Ramos B cells, Gaussian mean over ROIs): 586 nM
- k a, SPRM results for CA IX [1, 2]: 2.53 × 10^03 M^–1 s^–1
- kd, SPRM results for CA IX [1, 3]: 2.34 × 10^–03 s^–1
Structure (SMILES): CN(C)c1cccc2c(S(N)(=O)=O)cccc12 [Dansylamide]
- Kd (CA II): 760 nM

- Kd ([1]; Batch 1): 870 nM
- Kd ([1]; Batch 2): 1000 nM
- Kd ([1]; Batch 3): 780 nM
- Kd ([1]; SPRM results for CA IX): 870 nM
Structure (SMILES): NS(=O)(=O)c1ccc(C(=O)O)cc1 [4-CBS, 4-Carboxybenzenesulfonamide]

Structure (SMILES): Nc1ccc(S(N)(=O)=O)cc1 [Sulfanilamide]
- k a, SPRM results for CA IX [1]: 4.40 × 10^03 M^–1 s^–1
- kd, SPRM results for CA IX [1]: 1.39 × 10^–03 s^–1
